How the values were obtained:
[1] = molecular target: T1, Alpha-2C adrenergic receptor (Homo sapiens, UniProt P18825); assay type: functional
T1 sequence (P18825 whole entry): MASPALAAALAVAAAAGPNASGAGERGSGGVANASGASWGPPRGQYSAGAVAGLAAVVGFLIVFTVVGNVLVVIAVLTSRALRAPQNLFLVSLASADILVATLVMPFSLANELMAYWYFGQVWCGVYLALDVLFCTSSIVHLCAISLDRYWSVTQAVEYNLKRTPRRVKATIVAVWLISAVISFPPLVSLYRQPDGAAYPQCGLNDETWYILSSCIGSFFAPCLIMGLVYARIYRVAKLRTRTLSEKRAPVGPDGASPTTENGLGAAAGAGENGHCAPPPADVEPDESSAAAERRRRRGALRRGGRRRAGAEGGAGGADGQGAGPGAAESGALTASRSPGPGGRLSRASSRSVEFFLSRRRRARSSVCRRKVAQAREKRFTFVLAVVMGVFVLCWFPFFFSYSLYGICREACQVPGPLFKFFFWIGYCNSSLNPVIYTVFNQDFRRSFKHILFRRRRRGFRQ

[2] = molecular target: T2, Muscarinic acetylcholine receptor M2 (Homo sapiens, UniProt P08172); assay type: functional, cell-based
T2 sequence (P08172 whole entry): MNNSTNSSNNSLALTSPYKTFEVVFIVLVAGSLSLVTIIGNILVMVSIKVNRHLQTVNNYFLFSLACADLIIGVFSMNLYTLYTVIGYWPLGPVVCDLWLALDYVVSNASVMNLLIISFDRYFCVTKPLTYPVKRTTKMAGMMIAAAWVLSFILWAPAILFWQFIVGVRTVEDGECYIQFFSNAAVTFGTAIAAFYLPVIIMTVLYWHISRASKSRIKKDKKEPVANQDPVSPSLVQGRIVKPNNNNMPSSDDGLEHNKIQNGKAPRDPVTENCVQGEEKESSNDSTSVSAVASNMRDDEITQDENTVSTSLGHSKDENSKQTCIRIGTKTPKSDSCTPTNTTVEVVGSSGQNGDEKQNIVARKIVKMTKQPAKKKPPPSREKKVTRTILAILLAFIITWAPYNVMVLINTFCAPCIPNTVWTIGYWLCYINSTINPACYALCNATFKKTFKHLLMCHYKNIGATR

D(1A) dopamine receptor = D(1A) dopamine receptor (Homo sapiens, UniProt P21728); assay type: functional, cell-based
Chain of D(1A) dopamine receptor (P21728 whole entry): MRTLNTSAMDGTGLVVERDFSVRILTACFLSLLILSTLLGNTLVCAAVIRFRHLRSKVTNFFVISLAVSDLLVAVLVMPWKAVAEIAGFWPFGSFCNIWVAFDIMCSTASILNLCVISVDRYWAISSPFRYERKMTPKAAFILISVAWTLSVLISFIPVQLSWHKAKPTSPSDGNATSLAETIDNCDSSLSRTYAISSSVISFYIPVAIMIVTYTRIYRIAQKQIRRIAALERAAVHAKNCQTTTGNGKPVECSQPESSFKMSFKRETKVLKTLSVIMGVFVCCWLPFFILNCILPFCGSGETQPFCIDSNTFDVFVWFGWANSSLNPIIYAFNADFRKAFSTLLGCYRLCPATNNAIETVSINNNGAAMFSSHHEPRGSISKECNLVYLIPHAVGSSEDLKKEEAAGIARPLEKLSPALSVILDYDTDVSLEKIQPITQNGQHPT

[3] = molecular target: 5-hydroxytryptamine receptor 2A (Homo sapiens, UniProt P28223); assay type: functional, cell-based
Chain of 5-hydroxytryptamine receptor 2A (P28223 whole entry): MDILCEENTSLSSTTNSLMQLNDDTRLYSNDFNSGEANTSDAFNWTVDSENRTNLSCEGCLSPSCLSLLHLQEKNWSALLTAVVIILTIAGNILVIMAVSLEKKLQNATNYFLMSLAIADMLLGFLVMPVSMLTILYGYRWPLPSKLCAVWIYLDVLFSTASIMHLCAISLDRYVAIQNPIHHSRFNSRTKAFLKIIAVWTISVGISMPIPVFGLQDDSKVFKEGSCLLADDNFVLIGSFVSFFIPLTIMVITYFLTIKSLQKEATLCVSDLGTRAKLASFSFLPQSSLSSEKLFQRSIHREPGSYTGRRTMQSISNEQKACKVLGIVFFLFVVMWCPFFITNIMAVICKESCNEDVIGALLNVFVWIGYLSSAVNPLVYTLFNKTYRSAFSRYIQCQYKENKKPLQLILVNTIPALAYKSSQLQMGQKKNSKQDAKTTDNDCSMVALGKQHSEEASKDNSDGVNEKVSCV

[4] = molecular target: T3, Neuropeptide Y receptor type 1 (Homo sapiens, UniProt P25929)
T3 sequence (P25929 whole entry): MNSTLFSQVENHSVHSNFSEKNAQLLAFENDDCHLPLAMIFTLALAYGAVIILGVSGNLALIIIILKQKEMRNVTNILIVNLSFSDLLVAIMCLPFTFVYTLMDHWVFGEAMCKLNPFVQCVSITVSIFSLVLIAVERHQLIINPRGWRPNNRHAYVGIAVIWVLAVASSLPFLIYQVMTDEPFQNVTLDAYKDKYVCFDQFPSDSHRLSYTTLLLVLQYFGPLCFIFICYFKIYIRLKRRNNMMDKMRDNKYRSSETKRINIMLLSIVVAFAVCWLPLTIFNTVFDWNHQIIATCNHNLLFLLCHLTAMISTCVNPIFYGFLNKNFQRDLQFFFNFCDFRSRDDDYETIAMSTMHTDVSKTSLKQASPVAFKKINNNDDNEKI

Mu-type opioid receptor = Mu-type opioid receptor (Homo sapiens, UniProt P35372); test: biochemical; assay type: functional
Chain of Mu-type opioid receptor (P35372 whole entry): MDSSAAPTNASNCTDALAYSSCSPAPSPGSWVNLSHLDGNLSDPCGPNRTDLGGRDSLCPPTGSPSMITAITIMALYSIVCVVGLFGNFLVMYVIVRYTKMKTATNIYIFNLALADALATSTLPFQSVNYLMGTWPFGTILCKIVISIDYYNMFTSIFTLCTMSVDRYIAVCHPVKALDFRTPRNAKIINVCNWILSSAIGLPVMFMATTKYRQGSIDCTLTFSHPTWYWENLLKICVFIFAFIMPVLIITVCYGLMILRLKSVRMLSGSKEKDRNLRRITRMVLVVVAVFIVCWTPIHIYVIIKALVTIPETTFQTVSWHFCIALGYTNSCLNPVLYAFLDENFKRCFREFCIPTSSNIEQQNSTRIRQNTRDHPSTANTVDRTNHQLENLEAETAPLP

Progesterone receptor = molecular target: T4, Progesterone receptor (Homo sapiens, UniProt P06401); assay type: functional
T4 sequence (P06401 whole entry): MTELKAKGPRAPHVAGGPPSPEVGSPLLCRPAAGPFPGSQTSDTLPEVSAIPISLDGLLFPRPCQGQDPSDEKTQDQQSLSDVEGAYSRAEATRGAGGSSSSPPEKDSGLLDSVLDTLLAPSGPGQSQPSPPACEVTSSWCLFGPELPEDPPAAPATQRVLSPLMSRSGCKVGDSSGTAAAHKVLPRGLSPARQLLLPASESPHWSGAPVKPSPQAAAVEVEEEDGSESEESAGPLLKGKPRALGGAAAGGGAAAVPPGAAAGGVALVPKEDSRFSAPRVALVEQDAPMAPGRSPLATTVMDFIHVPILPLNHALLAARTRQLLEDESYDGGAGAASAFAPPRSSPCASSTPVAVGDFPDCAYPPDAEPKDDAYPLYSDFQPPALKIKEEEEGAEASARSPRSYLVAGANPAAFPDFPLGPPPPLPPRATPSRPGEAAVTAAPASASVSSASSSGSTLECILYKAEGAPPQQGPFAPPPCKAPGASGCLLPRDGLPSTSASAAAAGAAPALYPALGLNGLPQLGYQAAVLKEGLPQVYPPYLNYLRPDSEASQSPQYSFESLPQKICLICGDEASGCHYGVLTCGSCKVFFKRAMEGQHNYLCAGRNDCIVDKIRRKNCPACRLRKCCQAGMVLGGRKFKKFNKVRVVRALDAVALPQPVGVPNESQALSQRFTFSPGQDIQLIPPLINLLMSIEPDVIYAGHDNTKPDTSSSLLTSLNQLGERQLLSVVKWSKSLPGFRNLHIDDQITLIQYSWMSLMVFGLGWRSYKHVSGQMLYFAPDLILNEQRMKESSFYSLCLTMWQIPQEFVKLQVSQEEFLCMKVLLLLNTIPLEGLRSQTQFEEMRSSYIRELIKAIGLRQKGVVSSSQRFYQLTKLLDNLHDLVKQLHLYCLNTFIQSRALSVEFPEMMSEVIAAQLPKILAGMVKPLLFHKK

[5] = molecular target: T5, 5-hydroxytryptamine receptor 2C (Homo sapiens, UniProt P28335)
T5 sequence (P28335 whole entry): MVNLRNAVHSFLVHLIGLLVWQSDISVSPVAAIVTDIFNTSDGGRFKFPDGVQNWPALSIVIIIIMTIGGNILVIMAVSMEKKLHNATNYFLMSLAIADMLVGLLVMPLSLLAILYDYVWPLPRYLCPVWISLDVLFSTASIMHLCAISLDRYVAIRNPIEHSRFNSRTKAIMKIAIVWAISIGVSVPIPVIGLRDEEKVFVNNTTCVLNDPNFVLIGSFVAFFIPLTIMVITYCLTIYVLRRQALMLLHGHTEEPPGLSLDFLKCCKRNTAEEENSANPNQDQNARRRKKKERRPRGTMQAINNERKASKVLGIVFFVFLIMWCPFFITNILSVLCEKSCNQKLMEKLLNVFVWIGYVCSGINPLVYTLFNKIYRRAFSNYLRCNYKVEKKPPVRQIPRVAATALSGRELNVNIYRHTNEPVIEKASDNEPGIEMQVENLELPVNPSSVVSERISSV

[6] = molecular target: Muscarinic acetylcholine receptor M3 (Homo sapiens, UniProt P20309)
Chain of Muscarinic acetylcholine receptor M3 (P20309 whole entry): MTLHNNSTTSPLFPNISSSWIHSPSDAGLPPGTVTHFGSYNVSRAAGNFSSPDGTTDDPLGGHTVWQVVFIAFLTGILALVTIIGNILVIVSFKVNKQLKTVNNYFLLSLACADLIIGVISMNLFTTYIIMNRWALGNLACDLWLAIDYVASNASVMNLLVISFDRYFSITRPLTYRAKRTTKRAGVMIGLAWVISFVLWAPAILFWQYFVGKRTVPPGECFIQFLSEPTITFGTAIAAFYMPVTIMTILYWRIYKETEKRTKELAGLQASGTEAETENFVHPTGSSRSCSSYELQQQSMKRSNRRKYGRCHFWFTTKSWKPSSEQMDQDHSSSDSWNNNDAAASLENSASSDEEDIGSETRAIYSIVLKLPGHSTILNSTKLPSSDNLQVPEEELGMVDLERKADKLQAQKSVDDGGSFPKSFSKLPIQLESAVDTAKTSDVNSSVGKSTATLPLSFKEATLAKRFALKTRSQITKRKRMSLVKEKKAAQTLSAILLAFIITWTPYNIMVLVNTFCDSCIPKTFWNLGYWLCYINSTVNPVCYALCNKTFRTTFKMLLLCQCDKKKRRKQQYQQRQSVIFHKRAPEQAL
Further: assay procedure not described here.

Structure (SMILES) | AC50 [1] | AC50 [2] | AC50 (D(1A) dopamine receptor) | AC50 [3] | AC50 [4] | AC50 (Mu-type opioid receptor) | AC50 (Progesterone receptor) | AC50 [5] | AC50 [6]
CO/N=C(\C(=O)N[C@@H]1C(=O)N2C(C(=O)O)=C(CSc3nnnn3C)CS[C@H]12)c1csc(N)n1 [CEFMENOXIME] | > 30 µM | > 30 µM | > 30 µM | > 30 µM | > 30 µM | > 30 µM | > 30 µM |  | 
Cn1c(=O)c2c(ncn2CC2OCCO2)n(C)c1=O [DOXOFYLLINE] | > 30 µM | > 30 µM | > 30 µM |  | > 30 µM | > 30 µM | > 30 µM | > 30 µM | 
COc1ccccc1N1CCN(CCCNc2cc(=O)n(C)c(=O)n2C)CC1 |  | > 30 µM | > 30 µM | > 30 µM | > 30 µM | > 30 µM | > 30 µM | > 30 µM | > 30 µM
CC(=O)O[C@H]1CC[C@@]2(C)C(=CC[C@@H]3[C@@H]2CC[C@]2(C)C(c4cccnc4)=CC[C@@H]32)C1 [ABIRATERONE ACETATE] | > 30 µM | > 30 µM | > 30 µM | > 30 µM |  | > 30 µM | > 30 µM | > 30 µM | > 30 µM
CCOC(=O)OC(C)OC1=C(C(=O)Nc2ccccn2)N(C)S(=O)(=O)c2ccccc21 (stereo unspecified) [AMPIROXICAM] | > 30 µM | > 30 µM | > 30 µM |  | > 30 µM | > 30 µM | > 30 µM | > 30 µM | 
O=C(NCCN1CCOCC1)c1ccc(Cl)cc1 [MOCLOBEMIDE] | > 10 µM | > 10 µM | > 10 µM |  | > 10 µM | > 30 µM | > 10 µM | > 30 µM | 
CCCCCCOc1ccccc1C(N)=O [EXALAMIDE] | > 30 µM |  | > 30 µM | > 30 µM | > 30 µM | > 30 µM | > 30 µM | > 30 µM | > 30 µM
CCN1CCN(C(=O)N[C@@H](C(=O)N[C@@H]2C(=O)N3C(C(=O)O)=C(CSc4nnnn4C)CS[C@H]23)c2ccc(O)cc2)C(=O)C1=O [CEFOPERAZONE] | > 30 µM | > 30 µM | > 30 µM | > 30 µM | > 30 µM | > 30 µM |  | > 30 µM | > 30 µM
Nc1nc(N)nc(-c2cc(Cl)ccc2Cl)n1 [IRSOGLADINE] | > 30 µM | > 30 µM | > 30 µM |  | > 30 µM | > 30 µM | > 30 µM |  | 
COC(=O)C1=C(C)NC(C)=C(C(=O)OC2CCCN(Cc3ccccc3)C2)C1c1cccc([N+](=O)[O-])c1 (stereo unspecified) [BENIDIPINE] | 27 µM | > 30 µM | > 30 µM | > 30 µM | > 30 µM | > 30 µM |  | > 30 µM | > 30 µM
CC(=O)O[C@H]1C[C@@H]2CC[C@@H]3[C@H](CC[C@@]4(C)[C@H]3C[C@H]([N+]3(C)CCCCC3)[C@@H]4OC(C)=O)[C@@]2(C)C[C@@H]1N1CCCCC1 [VECURONIUM] | > 30 µM | > 30 µM | > 30 µM |  | > 30 µM | > 30 µM | > 30 µM | > 30 µM | 
CCN(CC)C(=O)N[C@H]1C[C@@H]2c3cccc4[nH]cc(c34)C[C@H]2N(C)C1 [TERGURIDE] | 0.0031 µM | > 30 µM | 0.049 µM |  | > 30 µM | > 30 µM | > 30 µM | 0.21 µM | > 30 µM
C[C@](N)(Cc1ccc(O)c(O)c1)C(=O)O [METHYLDOPA] | > 10 µM | > 10 µM | > 30 µM |  | > 10 µM | > 30 µM | > 30 µM | > 30 µM | 
Cc1ccc(S(=O)(=O)NC(=O)NN2CC3CCCC3C2)cc1 (stereo unspecified) [GLICLAZIDE] | > 30 µM | > 10 µM | > 30 µM |  | > 10 µM | > 30 µM | > 10 µM | > 30 µM | 
C[C@]12CC[C@H]3[C@@H](CCC4=CC(=O)CC[C@@]43C)[C@@H]1CC[C@@H]2O [TESTOSTERONE] | > 10 µM | > 10 µM | > 30 µM |  | > 10 µM | > 30 µM | 0.092 µM | > 30 µM | 
CN1C(=O)C(O)N=C(c2ccccc2Cl)c2cc(Cl)ccc21 (stereo unspecified) [LORMETAZEPAM] | > 30 µM |  | > 30 µM | > 30 µM | > 30 µM | > 30 µM | > 30 µM | > 30 µM | > 30 µM
CCCC(=O)O[C@]1(C(=O)CO)CC[C@H]2[C@@H]3CCC4=CC(=O)CC[C@]4(C)[C@H]3[C@@H](O)C[C@@]21C [HYDROCORTISONE BUTYRATE] | > 10 µM | > 10 µM | > 10 µM | > 10 µM | > 10 µM |  | 0.042 µM | > 30 µM | > 30 µM
O=C(O)[C@H](CC(=O)N1C[C@H]2CCCC[C@H]2C1)Cc1ccccc1 [MITIGLINIDE] | > 10 µM | > 10 µM | > 10 µM | > 10 µM | > 10 µM |  | > 10 µM | > 30 µM | > 30 µM
CCCN(CCC)C(=O)C(CCC(=O)O)NC(=O)c1ccccc1 (stereo unspecified) [PROGLUMIDE] | > 30 µM | > 10 µM | > 30 µM |  | > 30 µM | > 30 µM | > 30 µM | > 30 µM | 

Reference: ChEMBL document CHEMBL5291721, “A preclinical secondary pharmacology resource illuminates target-adverse drug reaction associations of marketed drugs” (Nat Commun, 2023)
